Measurements taken from the kinase profiling compilation of Christmann-Franck et al. (2016).
“And” between values parts separate entries of the source, which are not always exact repeats. Identical values can stand only once.

Columns and labels:
Experiment in all cases: radiometric filter-binding kinase assay, Kinase HotSpot
Details in all cases: compound 0.5 µM; ATP 10 µM
[1] = target: MAP3K3 (human) (UniProt Q99759)
[2] = target: EPHA5 (human) (UniProt P54756)
[3] = target: CAMK2D (human) (UniProt Q13557)
[4] = target: MAP4K4 (human) (UniProt O95819)
[5] = target: FER (human) (UniProt P16591)
[6] = target: IKBKB (human) (UniProt O14920)
[7] = target: CAMK2B (human) (UniProt Q13554)
[8] = target: SGK3 (human) (UniProt Q96BR1)
[9] = target: EPHB3 (human) (UniProt P54753)
[10] = target: TBK1 (human) (UniProt Q9UHD2)
[11] = target: MAPK12 (human) (UniProt P53778)
[12] = target: FYN (human) (UniProt P06241)
[13] = target: RAF1 (human) (UniProt P04049)
[14] = target: STK16 (human) (UniProt O75716)
[15] = target: HIPK2 (human) (UniProt Q9H2X6)
[16] = target: MAPKAPK5 (human) (UniProt Q8IW41)
[17] = target: CAMK1D (human) (UniProt Q8IU85)
[18] = target: RPS6KB2 (human) (UniProt Q9UBS0)
[19] = target: STK24 (human) (UniProt Q9Y6E0)
[20] = target: STK4 (human) (UniProt Q13043)
[21] = target: PDGFRB (human) (UniProt P09619)
[22] = target: ZAP70 (human) (UniProt P43403)
[23] = target: NTRK1 (human) (UniProt P04629)
[24] = target: WEE1 (human) (UniProt P30291)
[25] = target: LYN (human) (UniProt P07948)
[26] = target: CDK2 CCNE1 (human) (UniProt P24941+P24864)
[27] = target: PLK3 (human) (UniProt Q9H4B4)
[28] = target: CSNK1G3 (human) (UniProt Q9Y6M4)
[29] = target: MAPK14 (human) (UniProt Q16539)
[30] = target: CSNK1D (human) (UniProt P48730)
[31] = target: CSNK1G1 (human) (UniProt Q9HCP0)
[32] = target: MYLK (human) (UniProt Q15746)
[33] = target: FES (human) (UniProt P07332)
[34] = target: CAMK1G (human) (UniProt Q96NX5)
[35] = target: TSSK1B (human) (UniProt Q9BXA7)
[36] = target: CDK2 CCNA2 (human) (UniProt P24941+P20248)
[37] = target: FGFR3 (human) (UniProt P22607)
[38] = target: TTK (human) (UniProt P33981)
[39] = target: EPHA8 (human) (UniProt P29322)
[40] = target: IGF1R (human) (UniProt P08069)
[41] = target: CDC42BPB (human) (UniProt Q9Y5S2)

CAMK2D (human), sequence (Q13557 whole entry, looked up): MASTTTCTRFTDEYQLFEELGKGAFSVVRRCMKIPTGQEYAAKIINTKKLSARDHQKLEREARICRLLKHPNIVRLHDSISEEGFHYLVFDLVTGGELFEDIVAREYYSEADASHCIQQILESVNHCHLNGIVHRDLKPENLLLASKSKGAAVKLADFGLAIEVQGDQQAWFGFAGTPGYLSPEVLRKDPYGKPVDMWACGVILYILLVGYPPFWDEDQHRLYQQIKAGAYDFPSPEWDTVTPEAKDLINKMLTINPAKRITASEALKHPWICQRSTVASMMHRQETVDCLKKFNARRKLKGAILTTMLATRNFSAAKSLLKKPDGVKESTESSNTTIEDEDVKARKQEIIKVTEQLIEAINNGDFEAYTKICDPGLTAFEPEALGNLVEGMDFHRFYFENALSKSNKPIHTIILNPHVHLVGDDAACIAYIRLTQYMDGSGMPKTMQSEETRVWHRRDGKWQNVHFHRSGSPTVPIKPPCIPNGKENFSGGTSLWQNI
EPHB3 (human), sequence (P54753 whole entry, looked up): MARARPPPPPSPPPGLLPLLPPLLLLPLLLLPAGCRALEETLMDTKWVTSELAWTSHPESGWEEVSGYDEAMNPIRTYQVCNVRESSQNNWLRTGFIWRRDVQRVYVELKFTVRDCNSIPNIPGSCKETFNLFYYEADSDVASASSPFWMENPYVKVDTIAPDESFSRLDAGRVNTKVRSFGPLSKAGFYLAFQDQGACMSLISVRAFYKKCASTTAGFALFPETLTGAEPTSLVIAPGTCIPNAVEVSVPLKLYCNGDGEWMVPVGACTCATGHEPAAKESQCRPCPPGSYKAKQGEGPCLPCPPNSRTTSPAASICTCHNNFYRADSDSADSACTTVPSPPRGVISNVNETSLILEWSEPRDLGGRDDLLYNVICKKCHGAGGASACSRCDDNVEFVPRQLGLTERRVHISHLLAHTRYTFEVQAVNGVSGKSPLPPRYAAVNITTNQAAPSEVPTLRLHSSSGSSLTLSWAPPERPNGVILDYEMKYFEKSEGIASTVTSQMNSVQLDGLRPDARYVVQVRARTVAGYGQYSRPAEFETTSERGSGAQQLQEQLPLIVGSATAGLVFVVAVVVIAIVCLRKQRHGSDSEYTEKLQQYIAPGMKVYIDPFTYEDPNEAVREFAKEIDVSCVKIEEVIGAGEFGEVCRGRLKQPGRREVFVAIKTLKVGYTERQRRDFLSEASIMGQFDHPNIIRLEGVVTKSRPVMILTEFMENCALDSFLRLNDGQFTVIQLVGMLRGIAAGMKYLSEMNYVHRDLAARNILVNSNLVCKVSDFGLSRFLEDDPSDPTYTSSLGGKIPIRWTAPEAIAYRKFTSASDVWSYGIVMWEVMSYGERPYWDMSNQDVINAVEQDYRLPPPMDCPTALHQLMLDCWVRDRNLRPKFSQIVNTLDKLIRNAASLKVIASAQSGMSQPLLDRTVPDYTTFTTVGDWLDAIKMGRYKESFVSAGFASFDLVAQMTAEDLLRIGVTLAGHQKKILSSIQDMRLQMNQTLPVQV
RAF1 (human), sequence (P04049 whole entry, looked up): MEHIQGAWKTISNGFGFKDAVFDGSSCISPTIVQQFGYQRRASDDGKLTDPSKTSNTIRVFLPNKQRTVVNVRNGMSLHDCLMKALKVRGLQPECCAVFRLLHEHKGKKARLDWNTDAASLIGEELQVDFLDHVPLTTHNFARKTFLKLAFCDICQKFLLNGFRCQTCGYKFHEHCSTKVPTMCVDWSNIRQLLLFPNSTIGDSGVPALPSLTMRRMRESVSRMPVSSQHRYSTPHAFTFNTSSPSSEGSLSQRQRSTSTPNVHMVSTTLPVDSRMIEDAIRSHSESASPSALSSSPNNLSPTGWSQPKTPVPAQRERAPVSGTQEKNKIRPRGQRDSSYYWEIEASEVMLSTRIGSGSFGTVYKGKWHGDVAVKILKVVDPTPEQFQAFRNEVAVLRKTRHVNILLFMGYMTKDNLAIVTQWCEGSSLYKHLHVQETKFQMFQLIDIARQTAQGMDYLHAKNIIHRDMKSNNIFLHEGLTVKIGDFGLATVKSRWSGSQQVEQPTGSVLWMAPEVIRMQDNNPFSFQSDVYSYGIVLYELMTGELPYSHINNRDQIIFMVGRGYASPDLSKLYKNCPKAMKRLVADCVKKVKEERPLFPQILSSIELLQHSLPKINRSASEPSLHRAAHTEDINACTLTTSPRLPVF
CSNK1G1 (human), sequence (Q9HCP0 whole entry, looked up): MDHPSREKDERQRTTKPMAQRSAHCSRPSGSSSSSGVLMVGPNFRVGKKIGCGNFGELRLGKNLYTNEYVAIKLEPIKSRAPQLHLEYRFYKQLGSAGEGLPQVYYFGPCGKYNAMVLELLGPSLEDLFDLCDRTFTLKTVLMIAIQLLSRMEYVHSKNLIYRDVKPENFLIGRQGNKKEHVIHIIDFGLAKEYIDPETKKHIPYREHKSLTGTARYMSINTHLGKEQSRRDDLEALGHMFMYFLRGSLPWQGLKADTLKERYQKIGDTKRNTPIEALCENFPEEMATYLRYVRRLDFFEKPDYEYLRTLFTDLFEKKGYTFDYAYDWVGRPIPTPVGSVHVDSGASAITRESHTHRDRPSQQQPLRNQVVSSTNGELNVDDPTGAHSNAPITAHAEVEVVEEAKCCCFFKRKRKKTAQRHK
CAMK1G (human), sequence (Q96NX5 whole entry, looked up): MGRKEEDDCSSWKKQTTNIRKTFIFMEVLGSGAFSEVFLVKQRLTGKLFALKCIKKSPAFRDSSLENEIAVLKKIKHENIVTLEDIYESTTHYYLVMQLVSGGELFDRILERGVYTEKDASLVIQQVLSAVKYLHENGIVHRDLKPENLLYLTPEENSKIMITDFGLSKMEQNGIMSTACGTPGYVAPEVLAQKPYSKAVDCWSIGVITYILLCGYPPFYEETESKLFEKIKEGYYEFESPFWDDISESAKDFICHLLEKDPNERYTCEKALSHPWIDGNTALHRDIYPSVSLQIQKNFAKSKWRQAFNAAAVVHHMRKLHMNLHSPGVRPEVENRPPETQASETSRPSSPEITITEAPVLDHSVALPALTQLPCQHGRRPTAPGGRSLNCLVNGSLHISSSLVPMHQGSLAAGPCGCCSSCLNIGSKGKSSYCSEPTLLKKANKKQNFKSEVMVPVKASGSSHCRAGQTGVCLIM
NTRK1 (human), sequence (P04629 whole entry, looked up): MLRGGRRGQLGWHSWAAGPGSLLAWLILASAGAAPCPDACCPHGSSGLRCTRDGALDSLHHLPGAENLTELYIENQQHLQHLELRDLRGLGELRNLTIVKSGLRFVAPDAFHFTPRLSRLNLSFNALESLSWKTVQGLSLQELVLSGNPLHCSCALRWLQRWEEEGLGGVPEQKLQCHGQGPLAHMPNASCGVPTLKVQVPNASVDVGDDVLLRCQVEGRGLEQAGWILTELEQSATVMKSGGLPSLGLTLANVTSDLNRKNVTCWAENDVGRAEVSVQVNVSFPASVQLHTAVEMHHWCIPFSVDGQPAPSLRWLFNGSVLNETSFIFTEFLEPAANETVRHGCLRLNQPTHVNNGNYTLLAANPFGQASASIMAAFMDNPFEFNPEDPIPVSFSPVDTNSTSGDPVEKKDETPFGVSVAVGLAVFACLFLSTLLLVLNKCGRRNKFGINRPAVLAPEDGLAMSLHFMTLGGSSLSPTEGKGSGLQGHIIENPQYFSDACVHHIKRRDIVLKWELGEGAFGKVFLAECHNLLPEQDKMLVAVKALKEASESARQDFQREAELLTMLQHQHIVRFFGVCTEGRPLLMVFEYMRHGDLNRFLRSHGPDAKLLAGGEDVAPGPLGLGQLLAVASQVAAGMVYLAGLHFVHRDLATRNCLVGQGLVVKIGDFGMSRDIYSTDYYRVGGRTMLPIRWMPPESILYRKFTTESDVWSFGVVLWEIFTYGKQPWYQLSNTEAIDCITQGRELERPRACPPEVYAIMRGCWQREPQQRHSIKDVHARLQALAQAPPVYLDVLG
EPHA5 (human), sequence (P54756 whole entry, looked up): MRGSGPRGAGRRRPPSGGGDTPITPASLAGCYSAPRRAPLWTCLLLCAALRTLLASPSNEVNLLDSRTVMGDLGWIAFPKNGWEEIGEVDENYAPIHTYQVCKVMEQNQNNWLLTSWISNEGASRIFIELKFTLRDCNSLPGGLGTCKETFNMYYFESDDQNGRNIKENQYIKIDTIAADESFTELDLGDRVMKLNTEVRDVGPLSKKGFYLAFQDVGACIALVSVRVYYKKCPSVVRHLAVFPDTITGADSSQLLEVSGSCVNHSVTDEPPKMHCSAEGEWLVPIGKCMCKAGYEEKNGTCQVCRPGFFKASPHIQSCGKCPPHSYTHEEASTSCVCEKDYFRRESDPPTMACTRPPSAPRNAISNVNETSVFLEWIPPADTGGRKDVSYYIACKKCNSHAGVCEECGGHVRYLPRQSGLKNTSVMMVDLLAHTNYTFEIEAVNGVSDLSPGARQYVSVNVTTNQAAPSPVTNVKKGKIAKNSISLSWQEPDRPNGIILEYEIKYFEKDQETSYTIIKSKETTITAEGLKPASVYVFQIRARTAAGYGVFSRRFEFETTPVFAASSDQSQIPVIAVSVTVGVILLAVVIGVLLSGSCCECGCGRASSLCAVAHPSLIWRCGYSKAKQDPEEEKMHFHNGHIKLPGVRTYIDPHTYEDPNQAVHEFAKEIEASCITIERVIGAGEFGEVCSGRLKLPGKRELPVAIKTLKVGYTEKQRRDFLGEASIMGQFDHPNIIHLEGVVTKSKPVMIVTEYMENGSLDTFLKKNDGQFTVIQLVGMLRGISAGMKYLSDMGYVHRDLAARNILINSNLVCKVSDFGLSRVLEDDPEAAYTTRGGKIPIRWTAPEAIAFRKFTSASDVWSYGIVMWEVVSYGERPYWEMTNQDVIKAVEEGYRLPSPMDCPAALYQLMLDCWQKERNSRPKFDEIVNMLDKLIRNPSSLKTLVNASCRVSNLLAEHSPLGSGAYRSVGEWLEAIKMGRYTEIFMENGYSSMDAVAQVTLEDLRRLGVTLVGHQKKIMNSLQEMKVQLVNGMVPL

Compound: CC(=O)c1ccc(N2CCOCC2)cc1O
- residual activity [1]: 108%
- residual activity [2]: 109%
- residual activity [3]: 100%
- residual activity [4]: 96.9%
- residual activity [5]: 90.4%
- residual activity [6]: 103%
- residual activity [7]: 105%
- residual activity [8]: 105%
- residual activity [9]: 92.3%
- residual activity [10]: 99.1%
- residual activity [11]: 78.7%
- residual activity [12]: 103%
- residual activity [13]: 96.2%
- residual activity [14]: 110%
- residual activity [15]: 106%
- residual activity [16]: 96.9%
- residual activity [17]: 96.9%
- residual activity [18]: 101%
- residual activity [19]: 99%
- residual activity [20]: 102%
- residual activity [21]: 105%
- residual activity [22]: 99.5%
- residual activity [23]: 97.2%
- residual activity [24]: 97.5%
- residual activity [25]: 106% and 98.8%
- residual activity [26]: 94.8%
- residual activity [27]: 98.1%
- residual activity [28]: 101%
- residual activity [29]: 97.1%
- residual activity [30]: 100%
- residual activity [31]: 91.8%
- residual activity [32]: 91.1%
- residual activity [33]: 100%
- residual activity [34]: 101%
- residual activity [35]: 107%
- residual activity [36]: 99.3%
- residual activity [37]: 105%
- residual activity [38]: 103%
- residual activity [39]: 101%
- residual activity [40]: 106%
- residual activity [41]: 87.2%

Compound: CC[n+]1c(/C=C/N(C)c2ccccc2)n(-c2ccccc2)c2ccc(-c3nc4ccccc4s3)cc21
- residual activity [1]: 109%
- residual activity [2]: 100%
- residual activity [3]: 94%
- residual activity [4]: 110%
- residual activity [5]: 98.9%
- residual activity [6]: 98.6%
- residual activity [7]: 103%
- residual activity [8]: 102%
- residual activity [9]: 102%
- residual activity [10]: 95.7%
- residual activity [11]: 105%
- residual activity [12]: 99.2%
- residual activity [13]: 96.8%
- residual activity [14]: 98.4%
- residual activity [15]: 103%
- residual activity [16]: 96.8%
- residual activity [17]: 99.7%
- residual activity [18]: 93.2%
- residual activity [19]: 99.2%
- residual activity [20]: 98.3%
- residual activity [21]: 102%
- residual activity [22]: 95.5%
- residual activity [23]: 99.1%
- residual activity [24]: 92.4%
- residual activity [25]: 100% and 110%
- residual activity [26]: 92.9%
- residual activity [27]: 104%
- residual activity [28]: 92.4%
- residual activity [29]: 94.9%
- residual activity [30]: 104%
- residual activity [31]: 104%
- residual activity [32]: 98.4%
- residual activity [33]: 101%
- residual activity [34]: 101%
- residual activity [35]: 102%
- residual activity [36]: 100%
- residual activity [37]: 88.4%
- residual activity [38]: 96.6%
- residual activity [39]: 96.3%
- residual activity [40]: 93%
- residual activity [41]: 95%

Compound: Cc1ccc(NC2=CC(=O)c3sc(C)nc3C2=O)cc1
- residual activity [1]: 120%
- residual activity [2]: 98.2%
- residual activity [3]: 93.2%
- residual activity [4]: 84.5%
- residual activity [5]: 83.9%
- residual activity [6]: 97.3%
- residual activity [7]: 109%
- residual activity [8]: 95.2%
- residual activity [9]: 89.2%
- residual activity [10]: 94%
- residual activity [11]: 99.3%
- residual activity [12]: 95.6%
- residual activity [13]: 90.5%
- residual activity [14]: 91.7%
- residual activity [15]: 98.5%
- residual activity [16]: 108%
- residual activity [17]: 100%
- residual activity [18]: 95.2%
- residual activity [19]: 82.8%
- residual activity [20]: 93.5%
- residual activity [21]: 94.5%
- residual activity [22]: 95.4%
- residual activity [23]: 80.6%
- residual activity [24]: 107%
- residual activity [25]: 106% and 95.4%
- residual activity [26]: 72.9%
- residual activity [27]: 94.5%
- residual activity [28]: 90.1%
- residual activity [29]: 92.4%
- residual activity [30]: 101%
- residual activity [31]: 102%
- residual activity [32]: 90.1%
- residual activity [33]: 101%
- residual activity [34]: 95%
- residual activity [35]: 115%
- residual activity [36]: 88.1%
- residual activity [37]: 86%
- residual activity [38]: 98.9%
- residual activity [39]: 94.1%
- residual activity [40]: 92.2%
- residual activity [41]: 109%
